Measurements: patent US7452865B2, “Antagonistic analogs of GH RH (2003)” (The Administrare's of the Tulane Educational Fund, priority 2004, dated 2008)
Values joined by “and” are separate entries in the source; they are usually repeats but may differ in a detail not shown here. Equal entries are not always repeated. Marks after values point to notes of the source that are not given here. Square brackets hold non-standard residues; d marks the D form. Peptide text beside a SMILES is read from it. * marks the point of attachment. Bpa = N[C@@H](Cc1ccc(C(=O)c2ccccc2)cc1)C(=O)O; Phe(4-Cl) = N[C@@H](Cc1ccc(Cl)cc1)C(=O)O; C14 diacid = O=C(O)CCCCCCCCCCCCC(=O)*; hArg = N=C(N)NCCCC[C@H](N)C(=O)O; Nle = CCCC[C@H](N)C(=O)O; Abu = CC[C@H](N)C(=O)O; PhAc = O=C(Cc1ccccc1)*

How the values were obtained:
[1] = test system: GH-RH receptor isoforms on membrane fractions of human PC-3 prostate tumors; assay type: binding; conditions: for binding affinities to the tumoral receptors for GH-RH (in words): general statement
Text: Ligand competition assays with ^125I-labeled GH-RH antagonist JV-1-42 were used to determine the binding affinities of GH-RH analogs to the GH-RH receptor isoforms on membrane fractions of human PC-3 prostate tumors. The methods used have been described in detail (Halmos G, Schally A V, Varga J L, Plonowski A, Rekasi Z, Czompoly T, Proc Natl Acad Sci USA 97: 10555-10560, 2000; Halmos G, Schally A V, Czompoly T, Krupa M, Varga J L, Rekasi Z, J Clin Endocrinol Metab 87: 4707-4714, 2002), hereby incorporated by reference. Briefly, radioiodinated derivatives of JV-142 are prepared by the chloramine-T method. PC-3 tumors, grown as xenografts in nude mice, are used to prepare crude membranes. PC-3 membrane homogenates are incubated with [^125I]JV-142 and increasing concentrations (10^−12 to 10^−6 M) of nonradioactive antagonist peptides as competitors. The pellet is separated by centrifugation and counted for radioactivity in a gamma-counter. The final binding affinities are estimated by K1 (dissociation constant of the inhibitor-receptor complex) and are determined by the Ligand PC and McPherson computer programs of Munson and Rodbard (P. J. Munson and D. Rodbard, Anal. Biochem. […]: 220-239, 1980). Relative affinities (R.A.) compared to reference peptides such as JV-1-36 or JV-1-38, are calculated as the ratio of K1 of the reference peptide to the K, of the tested GH-RH antagonist.

[2] = test system: hGH-RH(1-29)NH2 induced GH release; assay: Inhibition of GH release in superfused rat pituitary system; assay type: cell-based; conditions: for GH response (% of control) 0 min / GH response (% of control) 30 min / GH response (% of control) 60 min / GH response (% of control) 90 min / GH response (% of control) 120 min: antagonist 30 nM; for GH response (% of control) 0 min: 1 nM hGH-RH(1-29)NH2 at 0 min; for GH response (% of control) 30 min: 1 nM hGH-RH(1-29)NH2 at 30 min; for GH response (% of control) 60 min: 1 nM hGH-RH(1-29)NH2 at 60 min; for GH response (% of control) 90 min: 1 nM hGH-RH(1-29)NH2 at 90 min; for GH response (% of control) 120 min: 1 nM hGH-RH(1-29)NH2 at 120 min; for endocrine antagonistic potency: inhibition of the GH release stimulated by hGH-RH(1-29)NH2 (in words): general statement, in vitro and in vivo
Protocol: The analogs were tested in vitro in a test described earlier (S. Vigh and A. V Schally, Peptides 5:241-[…], 1984) with modification (Z. Rekasi and A. V. Schally, P.N.A.S. 90:2146-2149, 1993).
Briefly, the cells are preincubated with peptides for 9 minutes (3 mL) at various concentrations. Immediately after the incubation, 1 nM hGH-RH(1-29)NH2 is administered for 3 minutes (1 mL) 10 minute response). To check the duration of the antagonistic effect of the analogue, 1 nM hGH-RH(1-29)NH2 is applied 30, 60, 90, and 120 minutes later for 3 minutes [30, 60, 90, 120 min responses]. Net integral values of the GH responses are evaluated. GH responses are compared to and expressed as percent of the original GH response induced by 1 nM GH-RH(1-29)NH2 The effect of the new antagonists are compared to that of [Ac-Tyr^1, D-Arg^2]hGH-RH(1-29)NH2, the “Standard antagonist”.
Rat GH levels in aliquots of undiluted and diluted superfusion samples were measured by double-antibody radioimmunoassay using materials supplied by the National Hormone and Pituitary Program, Baltimore, Md. The results of RIA were analyzed with a computer program developed in our institute (V. Csernus and A. V. Schally, in Neuroendocrine Research Methods, Harwood Academic (Greenstein, B. D. ed., London, pp. 71-109, 1991), hereby incorporated by reference.

[3] = test system: PC-3 human prostate cancer xenografts; assay: PC-3 xenografts in nude mice, Experiment 3: tumor growth; assay type: in vivo
Protocol: Male nude mice were implanted s.c. with 3 mm^3 pieces of PC-3 human hormone-independent prostate cancer tissue on both flanks. When tumors reached a volume of approximately 65 mm^3, the mice were divided into 7 experimental groups with 8 to 9 animals in each group and received single daily injections for 28 days as follows: 1. Control (vehicle solution); 2. JV-1-38 (10 μg/day s.c.); 3. Peptide 35 (10 μg/day s.c.); 4. Peptide 36 (10 μg/day s.c.); 5. Peptide 37 (10 μd/day s.c.); 6. Peptide 39 (10 μg/day s.c.); 7. Peptide 41 (10 μg/day s.c.). Tumor volumes were measured twice a week. The experiment was ended on day 28 by sacrificing the mice under Isofurane anesthesia. Resulting tumors were cleaned, weighed, and snapfrozen until further analyses. Trunk blood was collected from the abdominal aorta and serum was separated for RIA measurement of IGF-I. Statistical analyses of the measurement results were done by ANOVA followed by Fisher test; data are presented as the means±S.E.

[4] = 10 μg/day s.c., 28 days, vs control

Compound | binding affinities to the tumoral receptors for GH-RH (in words) [1] | GH response (% of control) 0 min [2] | GH response (% of control) 30 min [2] | GH response (% of control) 60 min [2] | GH response (% of control) 90 min [2] | GH response (% of control) 120 min [2] | Relative Affinities (R.A.) to membrane receptors on PC-3 human prostate cancers [1] | endocrine antagonistic potency: inhibition of the GH release stimulated by hGH-RH(1-29)NH2 (in words) [2] | Tumor volume (mm^3) Final ([3]; 10 μg/day s.c., 28 days) | Tumor volume doubling time ([3]; 10 μg/day s.c., 28 days) [days] | Tumor weight ([3]; 10 μg/day s.c., 28 days) [mg] | Tumor volume Final (% inhibition) [3, 4] | Tumor weight (% inhibition) [3, 4] | Tumor volume (mm^3) Initial ([3]; at start of treatment) [mm^3]
[CH3(CH2)6CO-Tyr^1, D-Arg^2, Phe(pCl)^6, Ala^8, His^9, Tyr(Et)^10, His^11, Abu^15, Nle^27, D-Arg^28, Har^29]hGH-RH(1-29)NHEt [Peptide 97] | extremely high binding affinities | – | – | – | – | – | – | – | – | – | – | – | – | –
CCCC[C@H](NC(=O)[C@@H](NC(=O)[C@H](CC(=O)O)NC(=O)[C@H](CCC(N)=O)NC(=O)[C@H](CC(C)C)NC(=O)[C@H](CC(C)C)NC(=O)[C@H](CCCCN)NC(=O)[C@H](CCCNC(=N)N)NC(=O)[C@H](C)NC(=O)[C@H](CO)NC(=O)[C@H](CC(C)C)NC(=O)[C@H](CCC(N)=O)NC(=O)[C@H](CC)NC(=O)[C@H](CC(C)C)NC(=O)[C@@H](NC(=O)[C@H](CCCCN)NC(=O)[C@H](CCCNC(=N)N)NC(=O)[C@H](Cc1ccc(O)cc1)NC(=O)[C@H](CCCNC(=N)N)NC(=O)[C@H](CC(N)=O)NC(=O)[C@@H](NC(=O)[C@H](Cc1ccc(Cl)cc1)NC(=O)[C@@H](NC(=O)[C@H](C)NC(=O)[C@H](CC(=O)O)NC(=O)[C@@H](CCCNC(=N)N)NC(=O)[C@H](Cc1ccc(O)cc1)NC(=O)CCCCCCCCCCCCC(=O)O)[C@@H](C)CC)[C@@H](C)O)C(C)C)[C@@H](C)CC)C(=O)N[C@H](CCCNC(=N)N)C(=O)N[C@@H](CCCCNC(=N)N)C(N)=O [Peptide 11, [HOOC(CH2)12CO-Tyr^1, D-Arg^2, Phe(pCl)^6, Arg^9, Abu^15, Nle^27, D-Arg^28, Har^29]hGH-RH(1-29)NH2] ({C14 diacid}-Y[dR]DAI[Phe(4-Cl)]TNRYRKVL[Abu]QLSARKLLQDI[Nle][dR][hArg]-NH2) | extremely high binding affinities | 14 % of control | 24 % of control | 29 % of control | 34 % of control | 32 % of control | 1.3 | – | – | – | – | – | – | –
[PhAc-Tyr^1, D-Arg^2, Phe(pCl)^6, Har^9, Phe(pNH2)^10, Abu^15, Nle^27, D-Arg^28, Har^29]hGH-RH(1-29)NH2 [Peptide 37] | – | 33 % of control | 12 % of control | 15 % of control | 15 % of control | 19 % of control | – | high endocrine antagonistic potencies | 323 ± 68.0* mm^3 | 12.7 ± 2.03 | 440 ± 104 | (57%) | (37%) | 60.0 ± 13.0
[PhAc-Tyr^1, D-Arg^2, Phe(pCl)^6, Cit^8, Arg^9, Abu^15, Nle^27, Har^28, D-Arg^29]hGH-RH(1-29)NH2 [Peptide 23] | – | 55 % of control | 40 % of control | 41 % of control | 47 % of control | 41 % of control | – | – | – | – | – | – | – | –
[Hca-Tyr^1, D-Arg^2, Phe(pCl)^6, Har^9, Tyr(Me)^10, Abu^15, Nle^27, D-Arg^28, Har^29, Agm^30]hGH-RH(1-30) [Peptide 59] | – | 72 % of control and 61 % of control and 93 % of control and 47 % of control | 49 % of control and 50 % of control and 43 % of control and 27 % of control | 46 % of control and 48 % of control and 60 % of control and 37 % of control | 38 % of control and 47 % of control and 57 % of control and 44 % of control | 76 % of control and 47 % of control | – | – | – | – | – | – | – | –
CCCC[C@H](NC(=O)[C@@H](NC(=O)[C@H](CC(=O)O)NC(=O)[C@H](CCC(N)=O)NC(=O)[C@H](CC(C)C)NC(=O)[C@H](CC(C)C)NC(=O)[C@H](CCCCN)NC(=O)[C@H](CCCNC(=N)N)NC(=O)[C@H](C)NC(=O)[C@H](CO)NC(=O)[C@H](CC(C)C)NC(=O)[C@H](CCC(N)=O)NC(=O)[C@H](CC)NC(=O)[C@H](CC(C)C)NC(=O)[C@@H](NC(=O)[C@H](CCCCN)NC(=O)[C@H](CCCNC(=N)N)NC(=O)[C@H](Cc1ccc(C(=O)c2ccccc2)cc1)NC(=O)[C@H](CCCCNC(=N)N)NC(=O)[C@H](CC(N)=O)NC(=O)[C@@H](NC(=O)[C@H](Cc1ccc(O)cc1)NC(=O)[C@@H](NC(=O)[C@H](C)NC(=O)[C@H](CC(=O)O)NC(=O)[C@@H](CCCNC(=N)N)NC(=O)[C@H](Cc1c[nH]cn1)NC(=O)Cc1ccccc1)[C@@H](C)CC)[C@@H](C)O)C(C)C)[C@@H](C)CC)C(=O)N[C@H](CCCNC(=N)N)C(=O)N[C@@H](CCCCNC(=N)N)C(N)=O [Peptide 42, [PhAc-His^1, D-Arg^2, Tyr^6, Har^9, Bpa^10, Abu^15, Nle^27, D-Arg^28, Har^29]hGH-RH(1-29)NH2] (PhAc-H[dR]DAIYTN[hArg][Bpa]RKVL[Abu]QLSARKLLQDI[Nle][dR][hArg]-NH2) | – | 52 % of control | 7 % of control | 9 % of control | 8 % of control | 13 % of control | – | high endocrine antagonistic potencies | – | – | – | – | – | –
[PhAc-Tyr^1, D-Arg^2, Phe(pCl)^6, D-Ala^8, Arg^9, Abu^15, Nle^27, D-Arg^28, Har^29]hGH-RH(1-29)NH2 [Peptide 26] | – | 20 % of control | 43 % of control | 66 % of control | 48 % of control | 44 % of control | – | – | – | – | – | – | – | –
[PhAc-Tyr^1, D-Arg^2, Phe(pCl)^6, Arg^9, His^10, Abu^15, Nle^27, D-Arg^28, Har^29]hGH-RH(1-29)NH2 [Peptide 32] | – | 28 % of control | 43 % of control | 69 % of control | 76 % of control | – | – | – | – | – | – | – | – | –
